Source: patent publication US11422132B2, “Peptides and uses thereof for diagnosing and treating myasthenia gravis” (The Regents of the University of California, priority 2016, dated 2022)
Entries after “also recorded” stand apart in the source; their conditions may differ. Where no end group is shown, it is not given here.

Experiments:
mAb 35 [1] = assay: Western blot of peptide-IChBD fusion proteins probed with mAb 35; assay type: binding, rat; settings: for mAb 35 binding, result in words: Western blot
Experimental: (§1) Chitin beads adsorbed with peptide-IChBD fusion proteins were run on an SDS-PAGE gel and transferred to a nitrocellulose membrane and assayed with the four mAbs.
(§2) Chitin beads adsorbed with peptide-IChBD fusion proteins were run on an SDS-PAGE gel and transferred to a nitrocellulose membrane and assayed with the five mAbs.
(§3) To explore the effects of individual amino acid substitutions between the Torpedo and the human AChR MIR mimics, eight peptides were prepared, each with an amino acid substituted from the human sequence into the Torpedo sequence. The single amino acid substitutions in the Torpedo MIR were: N10K (SEQ ID NO:11), L12F (SEQ ID NO:12), R66K (SEQ ID NO:13), A70D (SEQ ID NO:14), I75V (SEQ ID NO:15), R79H (SEQ ID NO:16), D111Q (SEQ ID NO:17), and K115H (SEQ ID NO:18).

mAb 132A [2] = assay: Western blot of peptide-IChBD fusion proteins probed with mAb 132A; assay type: binding, rat; parameters: key to mAb 132A, fold-change in binding relative to Torpedo 39MIR: ‘—’ denotes no binding; settings: for mAb 132A binding compared to the Torpedo 39 MIR: human 39MIR triple and quadruple mutants, FIG. 7
mAb 35 [3] = assay: Western blot of peptide-IChBD fusion proteins probed with mAb 35; assay type: binding, rat; parameters: key to mAb 35, fold-change in binding relative to Torpedo 39MIR: ‘—’ denotes no binding; settings: for mAb 35 binding compared to the Torpedo 39 MIR: human 39MIR triple and quadruple mutants, FIG. 7
mAb 198 [4] = assay: Western blot of peptide-IChBD fusion proteins probed with mAb 198; assay type: binding, rat; settings: for mAb 198 binding, result in words: Western blot; for mAb 198 binding compared to its binding to the human 39MIR: human 39MIR mutants, relative to human 39MIR
Excerpt: as §1, §2
The Torpedo (SEQ ID NO:9) and human (SEQ ID NO:8) 39MIRs were made by joining the α(1-12), α(65-79), and α(110-115) segments of their respective a subunits with GS linkers. These two MIR mimics were expressed in E. coli as fusion proteins with an IChBD tag to permit peptide collection on chitin beads. These two peptides differ from each other by eight amino acids (FIG. 2). Both mimics were probed with mAb 198. mAb 198, which was derived from rats that had been immunized with human muscle AChR, is a MIR-directed mAb that binds mammalian as well as Torpedo MIR (13,21). It was also able to passively transfer EAMG to rats and binds to both native assembled AChR and to α-subunit fragments in Western blots (22,23). mAb 198 binds to the Torpedo and human MIR peptide mimics in Western blots (FIG. 3). However, mAb 198 binds to the Torpedo mimic about 50 times more strongly than to the human MIR mimic (FIG. 3).
as §3

mAb 132A [5] = assay: Western blot of peptide-IChBD fusion proteins probed with mAb 132A; assay type: binding, rat; settings: for mAb 132A binding, result in words: Western blot
Experimental: as §1, §2, §3

[6] = tested on: antibodies in human MG serum samples; assay: Dot blot of His-tagged peptides against human MG serum samples; assay type: binding
Excerpt: Sample were obtained from either normal subjects (i.e., without a diagnosis of myasthenia gravis (MG)) or subjects diagnosed with MG. Samples were contacted with the Torpedo 39MIR peptide (SEQ ID NO:9), the human 39MIR peptide (SEQ ID NO:8), the K10N/V75I/[…] human 39MIR triple mutant (SEQ ID NO:26), or the K10N/D70A/V75I/Q111D human 39MIR quadruple mutant (SEQ ID NO:27).
His-tagged variants of the Torpedo 39MIR, human 39MIR, […] triple mutant, and K10N/D70A/V75I/Q111D quadruple mutant peptides were expressed and probed for binding to antibodies in human MG serum samples. The peptides were dot-blotted onto a membrane and probed for binding to antibodies in our human MG serum library. […] None of the His-tagged peptides bound any antibodies in normal human serum samples (FIG. 11). Although the triple mutant peptide (SEQ ID NO:26) bound better overall to mAb 35, mAb 132A, and mAb 198, the quadruple mutant peptide (SEQ ID NO:27) was better for binding antibodies in MG sera.

[7] = tested on: MIR directed Abs in EAMG sera; settings: reference 14; cited from earlier work
mAb 334 = assay: Western blot of peptide-IChBD fusion proteins probed with mAb 334; assay type: binding, rat; settings: Table 1, Western blot of FIG. 5, Torpedo 39MIR single mutants
Experimental: as §2, §3

mAb 132A [8] = settings: IChBD fusion; reference 14; read-out: Kd of complex with mAb 132A; cited from earlier work
mAb 198 [9] = assay: Western blot of peptide-Fc conjugates with mAb 198; assay type: binding, rat; settings: Western blot FIG. 13
Excerpt: (§4) A conjugate has been engineered (FIG. 12B) that fuses the chimeric Torpedo-human peptide (SEQ ID NO:27) to an antibody Fc domain.

mAb 132A [10] = assay: Western blot of peptide-Fc conjugates with mAb 132A; assay type: binding, rat; settings: Western blot FIG. 13
Excerpt: as §4

[11] = Table 2, Western blot of FIG. 7, human 39MIR multiple mutants
[12] = Table 3, single-substitution human 39MIR mutants
[13] = Table 1, Western blot of FIG. 5, Torpedo 39MIR single mutants

SEHETRLVAKLFGGGSLKWNPDDYGGIKKIHGSLDYTGH (synthetic main immunogenic region (MIR) peptide) [V75I/Q111D, Human MIR double mutant (V75I/Q111D)]
mAb 35 binding, result in words (mAb 35 [1]): restored binding | mAb 132A, fold-change in binding relative to Torpedo 39MIR (mAb 132A [2]; [11]): 3.34 fold-change | mAb 35, fold-change in binding relative to Torpedo 39MIR (mAb 35 [3]; [11]): 0.92 fold-change | mAb 198, fold-change in binding relative to Torpedo 39MIR (mAb 198 [4]; [11]): 2.71 fold-change | mAb 198 binding, result in words (mAb 198 [4]): restored binding | mAb 132A binding, result in words (mAb 132A [5]): restored binding

SEHETRLVAKLFGGGSLKWNPDDYGGVKKIHGSLQYTGH (synthetic main immunogenic region (MIR) peptide) [Human 39MIR]
mAb 35 binding, result in words (mAb 35 [1]): does not bind; also recorded: not recognized; also recorded: did not bind | mAb 132A, fold-change in binding relative to Torpedo 39MIR (mAb 132A [2]; [11]): — | mAb 132A, fold-change in binding relative to Torpedo 39MIR (mAb 132A [2]; [12]): — | mAb 35, fold-change in binding relative to Torpedo 39MIR (mAb 35 [3]; [11]): — | mAb 35, fold-change in binding relative to Torpedo 39MIR (mAb 35 [3]; [12]): — | binding to antibodies in human MG serum samples ([6]; FIG. 11): did not bind any antibodies | mAb 198, fold-change in binding relative to Torpedo 39MIR (mAb 198 [4]; [11]): 0.09 fold-change | mAb 198, fold-change in binding relative to Torpedo 39MIR (mAb 198 [4]; [12]): 0.02 fold-change | mAb 198 binding, result in words (mAb 198 [4]): binds; also recorded: recognized; also recorded: able to bind | mAb 132A binding, result in words (mAb 132A [5]): does not bind; also recorded: not recognized; also recorded: did not bind

SEHETRLVANLFGGGSLKWNPDDYGGIKKIHGSLQYTGH (synthetic main immunogenic region (MIR) peptide) [K10N/V75I, Human 39MIR double mutant (K10N/V75I)]
mAb 35 binding, result in words (mAb 35 [1]): restored binding | mAb 132A, fold-change in binding relative to Torpedo 39MIR (mAb 132A [2]; [11]): 1.25 fold-change | mAb 35, fold-change in binding relative to Torpedo 39MIR (mAb 35 [3]; [11]): 1.10 fold-change | mAb 198, fold-change in binding relative to Torpedo 39MIR (mAb 198 [4]; [11]): 1.79 fold-change | mAb 198 binding, result in words (mAb 198 [4]): restored binding | mAb 132A binding, result in words (mAb 132A [5]): restored binding

SEHETRLVANLFGGGSLKWNPDDYGGIKKIHGSLDYTGH (synthetic main immunogenic region (MIR) peptide) [K10N/V75I/Q111D, Human 39MIR triple mutant (K10N/V75I/Q111D)]
mAb 35 binding, result in words (mAb 35 [1]): improved binding | mAb 132A, fold-change in binding relative to Torpedo 39MIR (mAb 132A [2]; [11]): 2.46 fold-change | mAb 132A binding compared to the Torpedo 39 MIR (mAb 132A [2]): 2.46 × | mAb 35, fold-change in binding relative to Torpedo 39MIR (mAb 35 [3]; [11]): 2.97 fold-change | mAb 35 binding compared to the Torpedo 39 MIR (mAb 35 [3]): 2.97 × | binding to antibodies in human MG serum samples ([6]; FIG. 11): only bound antibodies in one MG serum sample | binding to antibodies in human MG serum samples ([6]; FIG. 11, listed as K10N/N75I/Q111D): bound antibodies in the human sera | mAb 198, fold-change in binding relative to Torpedo 39MIR (mAb 198 [4]; [11]): 2.52 fold-change | mAb 198 binding, result in words (mAb 198 [4]): improved binding | mAb 198 binding compared to its binding to the human 39MIR (mAb 198 [4]): 28 × | mAb 198 binding compared to the Torpedo 39 MIR (mAb 198 [4]; human 39MIR triple mutant, FIG. 7): 2.52 ×

SEHETRLVANLLGGGSLRWNPADYGGIKKIRGSLDYTGK [Torpedo 39MIR]
adsorption of MIR directed Abs in EAMG sera that block the binding of biotinylated mAb 132A to the Torpedo AChR [7]: able to adsorb all of the MIR directed Abs in EAMG sera | mAb 334, fold-change in binding relative to Torpedo 39MIR (mAb 334): 1.00 fold-change | mAb 35, fold-change in binding relative to Torpedo 39MIR (mAb 35 [1]; [13]): 1.00 fold-change | mAb 132A, fold-change in binding relative to Torpedo 39MIR (mAb 132A [2]; [11]): 1.00 fold-change | mAb 132A, fold-change in binding relative to Torpedo 39MIR (mAb 132A [2]; [12]): 1.00 fold-change | Kd (mAb 132A [8]): 0.21 nM | mAb 35, fold-change in binding relative to Torpedo 39MIR (mAb 35 [3]; [11]): 1.00 fold-change | mAb 35, fold-change in binding relative to Torpedo 39MIR (mAb 35 [3]; [12]): 1.00 fold-change | binding to antibodies in human MG serum samples ([6]; FIG. 11): did not bind any antibodies | mAb 198, fold-change in binding relative to Torpedo 39MIR (mAb 198 [4]; [13]): 1.00 fold-change | mAb 198, fold-change in binding relative to Torpedo 39MIR (mAb 198 [4]; [11]): 1.00 fold-change | mAb 198, fold-change in binding relative to Torpedo 39MIR (mAb 198 [4]; [12]): 1.00 fold-change | mAb 198 binding, result in words (mAb 198 [4]): binds; also recorded: able to bind | mAb 198 binding to the Torpedo mimic versus the human MIR mimic (mAb 198 [4]; Western blot FIG. 3, more strongly than to the human MIR mimic): about 50 times | mAb 132A, fold-change in binding relative to Torpedo 39MIR (mAb 132A [5]; [13]): 1.00 fold-change

SEHETRLVANLFGGGSLKWNPADYGGIKKIHGSLDYTGH (synthetic main immunogenic region (MIR) peptide) [K10N/D70A/V75I/Q111D, Human 39MIR quadruple mutant (K10N/D70A/V75I/Q111D)]
mAb 132A, fold-change in binding relative to Torpedo 39MIR (mAb 132A [2]; [11]): 0.99 fold-change | mAb 132A binding compared to the Torpedo 39 MIR (mAb 132A [2]): 0.99 × | mAb 35, fold-change in binding relative to Torpedo 39MIR (mAb 35 [3]; [11]): 1.70 fold-change | mAb 35 binding compared to the Torpedo 39 MIR (mAb 35 [3]): 1.70 × | binding to antibodies in human MG serum samples ([6]; FIG. 11): bound antibodies in the human sera | binding to antibodies in human MG serum samples ([6]; FIG. 11, listed as SEQ ID NO:27): a fraction of Abs in MG patient sera | binding to antibodies in human MG serum samples ([6]; FIG. 11, listed as quadruple mutant peptide): able to bind antibodies in all of our human MG serum samples | mAb 198, fold-change in binding relative to Torpedo 39MIR (mAb 198 [4]; [11]): 0.99 fold-change | mAb 198 binding compared to its binding to the human 39MIR (mAb 198 [4]): 11 ×

SEHETRLVANLFGGGSLKWNPDDYGGVKKIHGSLDYTGH (synthetic main immunogenic region (MIR) peptide) [K10N/Q111D, Human 39MIR double mutant (K10N/Q111D)]
mAb 35 binding, result in words (mAb 35 [1]): restored binding | mAb 132A, fold-change in binding relative to Torpedo 39MIR (mAb 132A [2]; [11]): 1.07 fold-change | mAb 35, fold-change in binding relative to Torpedo 39MIR (mAb 35 [3]; [11]): 2.31 fold-change | mAb 198, fold-change in binding relative to Torpedo 39MIR (mAb 198 [4]; [11]): 1.19 fold-change | mAb 198 binding, result in words (mAb 198 [4]): restored binding | mAb 132A binding, result in words (mAb 132A [5]): restored binding

Torpedo peptide-Fc conjugate: Torpedo 39MIR peptide (SEQ ID NO:9) conjugated to a human IgG antibody Fc domain plus hinge (SEHETRLVANLLGGGSLRWNPADYGGIKKIRGSLDYTGK; also: conjugated to human IgG Fc with hinge)
binding of mAb 198 to peptide-Fc conjugate (mAb 198 [9]): did not bind | binding of mAb 132A to peptide-Fc conjugate (mAb 132A [10]): did not bind
